The text below walks through data of patent publication EP0760362B1, “DIAMINOMETHYLIDENE DERIVATIVE” (NISSHIN SEIFUN GROUP INC., priority 1994, dated 1995).

The test system of this test is longitudinal muscle sample (including myenteric plexus) prepared from the ileum. The test can be described thus: Acetylcholine-release promoting action: contraction of electrically stimulated ileal longitudinal muscle in Magnus' tube. Set-up: species or system guinea pig. The settings on record: increase ratio in contraction by electrical stimulation, isometrically recorded. As to the method: Acetylcholine-release promoting action of the present compounds in the gastrointestinal tract was investigated according to the following procedure. A longitudinal muscle sample (including myenteric plexus) was prepared from the ileum excised from guinea pig and suspended in Magnus' tube. This sample was perfused in a physiological salt solution and stimulated by the electric current via platinum electrodes. […] This contraction was isometrically recorded. Accordingly, the drug capable of accelerating the release of acetylcholine could enhance the contraction caused by electric stimulation only. Evaluation of the compounds was represented in terms of increase ratio in contraction by electrical stimulation. The tested compounds are shown in terms of the numbers of the corresponding Examples.

Consider `N#CC(C#N)=C(NCc1ccccc1)NCC1CN(Cc2ccc(F)cc2)CCO1` (centres unmarked) [Example 1, 2-Benzylamino-2-[4-(p-fluorobenzyl)-2-morpholinylmethylamino]-1,1-ethylenedicarbonitrile], for which the “Contraction increase rate (%)” value runs as follows: (10^-5M) 12.3%; (10^-7M) 3.9%.

As for `N#CC(C#N)=C(NCC1CN(Cc2ccc(F)cc2)CCO1)NC1CCCCC1` (centres unmarked) [Example 2, 2-Cyclohexylamino-2-[4-(p-fluorobenzyl)-2-morpholinylmethylamino]-1,1-ethylenedicarbonitrile], the “Contraction increase rate (%)” value (10^-5M) is 5.3%. Still for that read-out and setting: the result for `CC(C)CNC(NCC1CN(Cc2ccc(F)cc2)CCO1)=C(C#N)C#N` (centres unmarked) [Example 5, 2-[4-(p-Fluorobenzyl)-2-morpholinylmethylamino]-2-isobutylamino-1,1-ethylenedicarbonitrile] reads 4.9%. On to `CCOC(=O)C(C#N)=C(NCc1ccccc1)NCC1CN(Cc2ccc(F)cc2)CCO1` (centres unmarked) [Example 6, Ethyl 3-benzylamino-3-[4-(p-fluorobenzyl)-2-morpholinylmethylamino]-2-cyanoacrylate], for which the “Contraction increase rate (%)” value runs as follows: (10^-5M) 20.3%; (10^-7M) 3.0%.

On to `CCOC(=O)C(C#N)=C(NCC1CN(Cc2ccc(F)cc2)CCO1)Nc1ccccc1` (centres unmarked) [Example 7, Ethyl 3-[4-(p-fluorobenzyl)-2-morpholinylmethylamino]-3-phenylamino-2-cyanoacrylate], for which, for the setting “10^-7M”, the “Contraction increase rate (%)” value is 0.7%.

Consider `CCOC(=O)C(C#N)=C(NCC(C)C)NCC1CN(Cc2ccc(F)cc2)CCO1` (centres unmarked) [Example 8, Ethyl 3-[4-(p-fluorobenzyl)-2-morpholinylmethylamino]-3-isobutylamino-2-cyanoacrylate], for which the “Contraction increase rate (%)” value reads like this: (10^-5M) 32.4%; (10^-7M) 8.5%.

`CCOC(=O)C(C#N)=C(NCC1CN(Cc2ccc(F)cc2)CCO1)NC1CCCCC1` (centres unmarked) [Example 9, Ethyl 3-cyclohexylamino-3-[4-(p-fluorobenzyl)-2-morpholinylmethylamino]-2-cyanoacrylate]: the “Contraction increase rate (%)” value is, setting by setting: (10^-5M) 31.9%; (10^-7M) 8.7%. The matching figures for `CCOC(=O)C(C#N)=C(NCC1CN(Cc2ccc(F)cc2)CCO1)Nc1ccc(OC)cc1` (centres unmarked) [Example 10]: 11.8% and 9.1%. The like results for `CCOC(=O)C(C#N)=C(NCCOCCNCc1ccc(F)cc1)NC1CCCCC1` [Example 12, Ethyl 3-cyclohexylamino-3-[7-(p-fluorophenyl)-6-aza-3-oxaheptylamino]-2-cyanoacrylate] were, in that order, 7.9% and 0.8%.

For the compound `N#CC(C#N)=C(NCc1ccc(F)cc1)NCC1CN(Cc2ccc(F)cc2)CCO1` (centres unmarked) [Example 13, 2-(p-Fluorobenzylamino)-2-[4-(p-fluorobenzyl)-2-morpholinylmethylamino]-1,1-ethylenedicarbonitrile], the “Contraction increase rate (%)” value worked out at 15.0% (10^-5M) and 4.9% (10^-7M).

Turning to `CNC(NC1CC2COCC(C1)N2Cc1ccc(F)cc1)=C(C#N)C#N` (stereo not drawn) [Example 15, 2-[endo-9-(p-Fluorobenzyl)-9-aza-3-oxabicyclo[3.3.1]non-7-ylamino]-2-methylamino-1,1-ethylenedicarbonitrile], the “Contraction increase rate (%)” value (10^-7M) worked out at 3.9%.

Turning to `CNC(NC1CC2COCC(C1)N2CCCOc1ccc(F)cc1)=C(C#N)C#N` (stereo not drawn) [Example 16, 2-[endo-9-[3-(p-Fluorophenoxy)propyl]-9-aza-3-oxabicyclo-[3.3.1]non-7-ylamino]-2-methylamino-1,1-ethylenedicarbonitrile], under “10^-7M”, the “Contraction increase rate (%)” value was 3.1%. Take `CNC(=C[N+](=O)[O-])NC1CC2COCC(C1)N2Cc1ccc(F)cc1` (stereo not drawn) [Example 17, N-[endo-9-(p-Fluorobenzyl)-9-aza-3-oxabicyclo[3.3.1]non-7-yl]-N'-methyl-2-nitrovinylidene-1,1-diamine]: the “Contraction increase rate (%)” value (10^-5M) is 5.7% and the “Contraction increase rate (%)” value (10^-7M) stood at 3.2%. As to `CNC(=O)NCC1CN(Cc2ccc(F)cc2)CCO1` (centres unmarked) [Example 19, 1-[4-(p-Fluorobenzyl)-2-morpholinylmethyl]-3-methylurea], the “Contraction increase rate (%)” value (10^-7M) was determined as 9.8%.

Take `CNC(=O)NC1CC2COCC(C1)N2Cc1ccc(F)cc1` (stereo not drawn) [Example 20, 1-[endo-9-(p-Fluorobenzyl)-9-aza-3-oxabicyclo[3.3.1]non-7-yl]-3-methylurea]: the “Contraction increase rate (%)” value (10^-7M) worked out at 4.2%.
